Patent US11447469B2, “Hetero ring-fused phenyl compounds for inhibiting TNIK and medical uses thereof” (Korea Research Institute of Chemical Technology, priority 2018, dated 2022)

Legend:
TNIK [1] = molecular target: T1, TNIK (Homo sapiens (Human), UniProt Q9UKE5); experiment: In vitro TNIK kinase assay using qPCR (competition binding with liganded affinity beads); conditions: compound at 1 μM; kinase in eluate measured by qPCR
Experimental: 1. Efficacy of Inhibiting TNIK Activity, In Vitro TNIK Kinase Assay Using qPCR
For most assays, kinase-tagged T7 phage strains were grown in parallel in 24-well blocks in an E. coli host derived from the BL21 strain. E. coli were grown to log-phase and infected with T7 phage from a frozen stock (multiplicity of infection=0.4) and incubated with shaking at 32° C. until (90-150 minutes). The lysates were centrifuged (6,000×g) and filtered (0.2 μm) to remove cell debris. The remaining kinases were produced in HEK-293 cells and subsequently tagged with DNA for qPCR detection. Streptavidin-coated magnetic beads were treated with biotinylated small molecule ligands for 30 minutes at room temperature to generate affinity resins for kinase assays. The liganded beads were blocked with excess biotin and washed with blocking buffer (SeaBlock (Pierce), 1% BSA, 0.05% Tween 20, 1 mM DTT) to remove unbound ligand and to reduce non-specific phage binding. Binding reactions were assembled by combining kinases, liganded affinity beads, and test compounds in 1× binding buffer (20% SeaBlock, 0.17×PBS, 0.05% Tween 20, 6 mM DTT). Test compounds were prepared as 40× stocks in 100% DMSO and directly diluted into the assay. All reactions were performed in polypropylene 384-well plates in a final volume of 0.04 ml.
The assay plates were incubated at room temperature with shaking for 1 hour and the affinity beads were washed with wash buffer (1×PBS, 0.05% Tween 20). The beads were then re-suspended in elution buffer (1×PBS, 0.05% Tween 20, 0.5 μM non-biotinylated affinity ligand) and incubated at room temperature with shaking for 30 minutes. The kinase concentration in the eluates was measured by qPCR.

TNIK [2] = molecular target: T1, TNIK; experiment: In vitro TNIK kinase assay using ADP-Glo Kinase Assay system; format: biochemical; conditions: 100 μM ATP, MBP substrate; for inhibition at 1 µM: compound at 1 μM; for IC50: 37° C. 30 min
Experimental: 2. Efficacy of Inhibiting TNIK Activity, In Vitro TNIK Kinase Assay Using ADP-Glo™ Kinase Assay System
The inhibitory properties of compounds were evaluated with TNIK kinase enzyme system and luminescent ADP-Glo ? Kinase Assay from Promega Corporation according to the manufacturer's protocol. The tested compounds were incubated with TNIK kinases. Reactions were performed in 10 μl kinase buffer supplemented with reaction mixture containing 2 μl ATP, 2 μl MBP protein and 2 μl TNIK at 37° C. for 30 min. After kinase reaction, 5 μl reaction mixtures were transferred to 384 well assay plate (Greiner, solid white low-binding plates). Next, 5 μl of ADP-Glo Reagent was added to each well and incubated at 37° C. for 30 min. After 45 min, 10 μl Kinase Detection Reagent was added to each well and luminescence signal was detected with the SpectraMax M5e Microplate Reader (Molecular Devices, Menlo Park, Calif.) after 30 min at 37° C. incubation. The IC50 values were calculated using GraphPad Prism software (GraphPad Software Inc., La Jolla, Calif., USA) to determine kit performance. To the cut-off assay, the inhibitory activity of the compounds against TNIK kinase was expressed as the percentage of the kinase inhibitory activity for an indicated concentration of inhibitor. The IC s of the compounds against TNIK kinase values were calculated a log-concentration-response curve fitted with a four-parameter logistic equation and expressed dose-response curve for % of inhibitory activity versus log of the compound concentration.

SW620 cells = experiment: Cell viability assay (CCK-8) using SW620 cell; format: cell-based; conditions: Homo sapiens, SW-620, 48 h exposure
Experimental: (§1) 3. Efficacy of Inhibiting Cancer Cells Using Colon Cancer Cell Lines
(§2) The human colon cancer cell line SW480 (Catalog No. CCL-228) and SW620 (Catalog No. CCL-227) were obtained from the American Type Culture Collection (ATCC), and maintained in DMEM (Thermo Fisher Scientific Inc., Waltham, Mass., USA) supplemented with 10% fetal bovine serum (FBS) (Thermo Fisher Scientific Inc., Waltham, Mass.), 100 U/ml penicillin, and 100 µg/ml streptomycin (Gibco, Gaithersburg, Md.). Cells were grown at 37° C. in 5% CO2 for confluence.
(§3) Cell viability was measured using the Cell Counting Kit-8 (Dojindo Molecular Technologies). SW480 and SW620 cells (2.5×10^4 cells/well) were seeded in 96-well plates and incubated for 24 h. After incubation, the cells were exposed to serially diluted compounds (0.1, 0.3, 1, 3, 10 and 30 µM) in 100 μl phenol free DMEM medium containing 0.1% FBS. After 48 h, CCK-8 reagent was added at 10 μl per well and incubated for 1 h at 37° C. Optical density was measured at 450 nm using a microplate reader (Bio-Rad Laboratories, Hercules, Calif.). The IC50 values were calculated using GraphPad Prism software (GraphPad Software Inc., La Jolla, Calif., USA) to determine kit performance. Experiments were performed in triplicate.

SW480 cells = experiment: Cell viability assay (CCK-8) using SW480 cell; format: cell-based; conditions: Homo sapiens, 48 h exposure
Experimental: as §1, §2, §3

T1 sequence (Q9UKE5 whole entry): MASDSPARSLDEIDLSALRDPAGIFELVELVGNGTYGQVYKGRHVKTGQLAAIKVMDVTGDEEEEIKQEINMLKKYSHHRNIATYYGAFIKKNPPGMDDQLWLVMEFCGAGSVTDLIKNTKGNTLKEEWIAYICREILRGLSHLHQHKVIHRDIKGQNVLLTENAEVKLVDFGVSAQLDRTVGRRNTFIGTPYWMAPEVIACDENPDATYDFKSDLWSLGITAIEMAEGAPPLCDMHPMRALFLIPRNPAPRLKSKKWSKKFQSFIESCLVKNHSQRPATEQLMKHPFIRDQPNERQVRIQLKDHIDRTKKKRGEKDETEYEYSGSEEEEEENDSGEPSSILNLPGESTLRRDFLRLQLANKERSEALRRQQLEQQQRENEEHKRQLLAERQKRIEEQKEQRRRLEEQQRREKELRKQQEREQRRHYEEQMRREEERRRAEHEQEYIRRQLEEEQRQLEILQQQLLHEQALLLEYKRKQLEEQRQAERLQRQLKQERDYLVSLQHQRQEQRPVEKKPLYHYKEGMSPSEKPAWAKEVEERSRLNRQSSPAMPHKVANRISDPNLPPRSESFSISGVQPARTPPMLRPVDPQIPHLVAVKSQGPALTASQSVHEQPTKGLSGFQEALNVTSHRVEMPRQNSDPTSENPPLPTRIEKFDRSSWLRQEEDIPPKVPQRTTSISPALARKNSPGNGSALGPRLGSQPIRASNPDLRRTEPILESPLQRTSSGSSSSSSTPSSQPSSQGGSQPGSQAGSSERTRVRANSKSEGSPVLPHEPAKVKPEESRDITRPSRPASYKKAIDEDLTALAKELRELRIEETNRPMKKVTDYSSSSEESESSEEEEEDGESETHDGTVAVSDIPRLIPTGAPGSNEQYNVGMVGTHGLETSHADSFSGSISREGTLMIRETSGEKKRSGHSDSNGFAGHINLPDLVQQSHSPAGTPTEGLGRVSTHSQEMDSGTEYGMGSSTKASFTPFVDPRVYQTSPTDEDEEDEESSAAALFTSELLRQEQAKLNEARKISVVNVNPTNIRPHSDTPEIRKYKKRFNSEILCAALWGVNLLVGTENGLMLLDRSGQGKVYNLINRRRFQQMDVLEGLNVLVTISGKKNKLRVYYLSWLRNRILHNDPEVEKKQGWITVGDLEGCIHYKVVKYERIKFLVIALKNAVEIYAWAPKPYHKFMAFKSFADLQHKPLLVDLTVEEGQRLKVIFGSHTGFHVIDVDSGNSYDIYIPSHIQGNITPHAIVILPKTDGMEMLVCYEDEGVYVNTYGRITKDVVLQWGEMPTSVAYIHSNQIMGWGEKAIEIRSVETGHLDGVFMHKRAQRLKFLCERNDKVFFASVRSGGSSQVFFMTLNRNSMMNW

`COc1ccc(-c2cc(Nc3ccc4[nH]c(=O)[nH]c4c3)n[nH]2)cc1` [Compound 3, 5-((5-(4-methoxyphenyl)-1H-pyrazol-3-yl)amino)-1,3-dihydro-2H-benzo[d]imidazol-2-one] was tested, and the activity at 1 µM (TNIK [1]) was 7% and the inhibition at 1 µM (TNIK [2]) was 79%.
`COc1ccc(-c2cc(Nc3ccc4[nH]ccc4c3)n[nH]2)cc1` [Compound 1, N-(5-(4-methoxyphenyl)-1H-pyrazol-3-yl)-1H-indol-5-amine] showed an activity at 1 µM (TNIK [1]) of 16%.
In the case of `COc1ccc(-c2cc(Nc3ccc4[nH]ncc4c3)n[nH]2)cc1` [Compound 2, N-(5-(4-methoxyphenyl)-1H-pyrazol-3-yl)-1H-indazol-5-amine], the activity at 1 µM (TNIK [1]) is reported as 21%, the IC50 (TNIK [2]) is reported as 94 nM and the inhibition at 1 µM (TNIK [2]) is reported as 99%. The IC50 (SW620 cells) was 1.2 µM and the IC50 (SW480 cells) was 4.5 µM.
`O=C1Cc2cc(Nc3cc(-c4ccc(O)c(F)c4)[nH]n3)ccc2N1` [Compound 8, 5-((5-(3-fluoro-4-hydroxyphenyl)-1H-pyrazol-3-yl)amino)indolin-2-one] gave an IC50 (TNIK [2]) of 1 nM and an inhibition at 1 µM (TNIK [2]) of 88%.
For `O=C1CCc2cc(Nc3cc(-c4ccc(-n5ccnc5)cc4)[nH]n3)ccc2N1` [Compound 9, 6-((5-(4-(1H-imidazol-1-yl)phenyl)-1H-pyrazol-3-yl)amino)-3,4-dihydroquinolin-2(1H)-one], the IC50 (TNIK [2]) was 1 nM and the inhibition at 1 µM (TNIK [2]) was 98%.
`O=C1CCc2cc(Nc3cc(-c4ccc(O)cc4)[nH]n3)ccc2N1` [Compound 6, 6-((5-(4-hydroxyphenyl)-1H-pyrazol-3-yl)amino)-3,4-dihydroquinolin-2(1H)-one] was tested, and the IC50 (TNIK [2]) was 62 nM and the inhibition at 1 µM (TNIK [2]) was 96%.
`Oc1ccc(-c2cc(Nc3ccc4[nH]ncc4c3)n[nH]2)cc1F` [Compound 12, 4-(3-((1H-indazol-5-yl)amino)-1H-pyrazol-5-yl)-2-fluorophenol] showed an IC50 (TNIK [2]) of 45 nM, an inhibition at 1 µM (TNIK [2]) of 93% and an IC50 (SW620 cells) of 13 µM.
Work on `COc1ccc(-c2cc(Nc3ccc4cn[nH]c4c3)n[nH]2)cc1` [Compound 4, N-(5-(4-methoxyphenyl)-1H-pyrazol-3-yl)-1H-indazol-6-amine] yielded an activity at 1 µM (TNIK [1]) of 8%.
`Cc1nc2cc(Nc3cc(-c4ccc(-n5cccn5)cc4)[nH]n3)ccc2[nH]1` [Compound 18, N-(5-(4-(1H-pyrazol-1-yl)phenyl)-1H-pyrazol-3-yl)-2-methyl-1H-benzo[d]imidazol-5-amine] showed an IC50 (TNIK [2]) of 96 nM, an inhibition at 1 µM (TNIK [2]) of 99% and an IC50 (SW620 cells) of 3.4 µM. For the same molecule, the IC50 (SW480 cells) was 21 µM.
With `c1cnn(-c2ccc(-c3cc(Nc4ccc5[nH]ncc5c4)n[nH]3)cc2)c1` [Compound 10, N-(5-(4-(1H-pyrazol-1-yl)phenyl)-1H-pyrazol-3-yl)-1H-indazol-5-amine] the IC50 (TNIK [2]) was 55 nM and the inhibition at 1 µM (TNIK [2]) was 99%.
Work on `O=C1CCc2cc(Nc3cc(-c4ccc(-n5cccn5)cc4)[nH]n3)ccc2N1` [Compound 7, 6-((5-(4-(1H-pyrazol-1-yl)phenyl)-1H-pyrazol-3-yl)amino)-3,4-dihydroquinolin-2(1H)-one] yielded an IC50 (TNIK [2]) of 1 nM.
With `O=C1COc2cc(Nc3cc(-c4ccc(O)cc4)[nH]n3)ccc2N1` [Compound 14, 7-((5-(4-hydroxyphenyl)-1H-pyrazol-3-yl)amino)-2H-benzo[b][1,4]oxazin-3(4H)-one] the inhibition at 1 µM (TNIK [2]) was 97%.
With `O=C1COc2cc(Nc3cc(-c4ccc(-n5cccn5)cc4)[nH]n3)ccc2N1` [Compound 13, 7-((5-(4-(1H-pyrazol-1-yl)phenyl)-1H-pyrazol-3-yl)amino)-2H-benzo[b][1,4]oxazin-3(4H)-one] the IC50 (TNIK [2]) was 7 nM and the inhibition at 1 µM (TNIK [2]) was 90%.
Molecule `Oc1ccc(-c2cc(Nc3ccc4[nH]ncc4c3)n[nH]2)cc1` [Compound 11, 4-(3-((1H-indazol-5-yl)amino)-1H-pyrazol-5-yl)phenol] has an IC50 (TNIK [2]) of 29 nM and an inhibition at 1 µM (TNIK [2]) of 94%.
